Measured values taken from BindingDB's records for doi:10.1016/j.ejmech.2017.07.038 (Jain University, 2017).

Experiment: Antagonist activity at ER in human MCF7 cells assessed as inhibition of 17beta-estradiol-induced cell proliferation

SMILES: Oc1ccc2c(c1)C(c1ccc(OCCN3CCCCC3)cc1)c1c(sc3cc(O)ccc13)C2 (stereo unspecified)
- IC50: 0.9 nM
